Experimental data reported in patent publication US20230191413A1, “METHOD AND APPARATUS FOR MEASURING PHASE TRANSITION CHARACTERISTICS OF MACROMOLECULES” (CAMBRIDGE ENTERPRISE LIMITED, priority 2020, published 2023).

Biological target: T1, FUS-GFP (FUS^G156E-EGFP) (Homo sapiens, UniProt P35637, G156E)
T1 sequence (P35637 1-526 G156E): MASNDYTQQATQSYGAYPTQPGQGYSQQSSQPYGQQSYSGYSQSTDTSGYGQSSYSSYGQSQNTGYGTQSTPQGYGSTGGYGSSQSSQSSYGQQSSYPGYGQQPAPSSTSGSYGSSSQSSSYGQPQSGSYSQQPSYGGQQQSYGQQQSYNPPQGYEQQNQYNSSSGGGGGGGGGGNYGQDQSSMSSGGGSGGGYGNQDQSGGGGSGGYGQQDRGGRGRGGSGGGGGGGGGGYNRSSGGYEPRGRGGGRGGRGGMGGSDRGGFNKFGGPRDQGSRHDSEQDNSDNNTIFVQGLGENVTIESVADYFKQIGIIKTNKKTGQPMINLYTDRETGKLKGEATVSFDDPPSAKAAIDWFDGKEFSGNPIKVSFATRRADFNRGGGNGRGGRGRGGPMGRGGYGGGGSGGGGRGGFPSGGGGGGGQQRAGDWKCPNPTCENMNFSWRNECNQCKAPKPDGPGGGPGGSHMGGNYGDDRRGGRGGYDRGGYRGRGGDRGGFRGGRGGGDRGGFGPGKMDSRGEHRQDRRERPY
Experiment: Droplet microfluidics phase diagram of FUS-GFP liquid-liquid phase separation as a function of protein and 1,6-hexanediol concentration
Format: biochemical
Details: micro-droplets, GFP fluorescence puncta; homogeneous phase at higher diol concentrations (FIG. 6, N=322 droplets)
Description: The method utilises droplet microfluidics to rapidly produce many micro-droplets, each of which can be considered a discrete microenvironment in which to study protein phase separation. By altering the input solution conditions, a broad range of phase-separation environments are produced rapidly in order to map LLPS behaviour over a wide region of chemical space. […] Using the microfluidic platform, the phase boundary between phase-separated and homogeneous FUS solution is determined, as modulated by the small molecule 1,6-hexanediol, which is known to strongly interfere with LLPS behaviour. […]
Alexa647 dye (10 μM) was mixed with the 1,6-hexanediol solution, to provide a fluorescent marker for the intra-droplet 1,6-hexanediol concentration. […] Samples were collected for three minutes before undergoing fluorescence imaging analysis.
The concentration of FUS^G156E-EGFP and 1,6-hexanediol present in each droplet was determined by integration of volume-normalised EGFP (green fluorescent protein) and Alexa647 fluorescence, respectively. Phase separation was observed by the presence of discrete puncta in GFP fluorescence, whereas homogeneous droplet fluorescence indicated the absence of phase separation (FIG. 5). […]

- concentration of 1,6-hexanediol at which phase separation of FUS-GFP was observable: < 1 % v/v
SMILES: OCCCCCCO [1,6-hexanediol]
